A short description of data set [1]: Toxicity analysis (body weight, cTnI, ALT, AST) in tumor-bearing mice. Format: in vivo.
Procedure: Six to eight week old mice (n=5-7 for each group) were injected subcutaneously with TC-1 (2×10^5) or B16F10 (2×10^5) cells into the right flank. […] Some groups were intraperitoneally injected with 200 μg checkpoint inhibitors (anti-mPD-1, BioXcell, BE0146) for comparison or synergy evaluation. Tumor growth was subsequently measured twice a week using a digital caliper and calculated as 0.5×length×width×height by blinded investigators. Mouse weight was also recorded. Mice were sacrificed when the tumor volumes reached 1,500 mm^3.
Blood of different mouse groups were collected after 4 h. Then alanine transaminase activity assay (Abcam, ab105134), aspartate aminotransferase activity assay (Abcam, ab105135), and mouse cardiac troponin-I ELISA analysis (Life Diagnostics, Inc., Cat. No. CTNI-1-HS) were performed.
The next data set in a line: in vivo. The format is in vivo, mice. The settings on record: for concentration at 24 h: tumor tissue 24 h after administration, read-out: tumor accumulation of AZD3965.
In the next data set the test system is TC-1 tumor. The data set is described as follows: Tumor growth and survival, TC-1 tumor model. Format: in vivo. The conditions noted are these: TC-1 model, day 27. The protocol:
Six to eight week old mice (n=5-7 for each group) were injected subcutaneously with TC-1 (2×10^5) or B16F10 (2×10^5) cells into the right flank. Animals were treated by 50 mg/kg AZD3965 (administered twice daily by oral gavage for a total of 7 days), or by AZD-UPS NPs (containing 2 mg/kg AZD3965, IV injected at days 7, 10 and 13). Some groups were intraperitoneally injected with 200 μg checkpoint inhibitors (anti-mPD-1, BioXcell, BE0146) for comparison or synergy evaluation. Tumor growth was subsequently measured twice a week using a digital caliper and calculated as 0.5×length×width×height by blinded investigators. Mouse weight was also recorded. Mice were sacrificed when the tumor volumes reached 1,500 mm^3.

The next data set concerns TC-1 cells. As to the kind of experiment: Measurement of lactate and pH in the cell culture medium. The format is cell-based. The conditions noted are these: 1 μM (effective) AZD3965, 24 h, added directly (intact NPs), vs untreated control. The protocol: All animal procedures were performed with ethical compliance and approval by the Institutional Animal Care and Use Committee at the University of Texas Southwestern Medical Center. Cells were cultured in DMEM medium (10% fetal bovine serum, 100 U/mL penicillin G sodium and 100 μg/mL streptomycin (Pen/Strep), non-essential amino acids, and 20 μM β-mercaptoethanol (β-ME)) at 37° C. in 5% CO2 and the normal level of O2.
For lactate measurement, TC-1 cells were cultured in normal DMEM medium as described above with different drugs: free AZD3965 (1 uM), intact AZD-UPS NPs (1 uM effective AZD3965 concentration), or pretreatment of AZD-UPS NPs in pH 6.0 buffer for pH-activated drug release followed by addition into the cell culture medium. After 24 h incubation, lactate concentration was measured by NOVA BioProfile 4. For pH measurement, TC-1 cells were cultured in DMEM medium (D5030, Sigma) without NaHCO3, and in incubator without CO2 for 24 h, followed by measurement of medium pH.

[2] abbreviates: oral administration 50 mg/kg for 7 days, serum 4 h after last treatment, vs untreated.

SMILES strings stand for the structures. Read-outs that look alike come from different tables or passages of the source.

These results are taken from patent US11786464B2, “PH responsive block copolymer compositions and micelles that inhibit MCT 1 and related proteins” (The Board of Regents of the University of Texas System, priority 2020, dated 2023).

Procedure for in vivo: Mouse plasma were collected and added into 1 mL of methanol/water mixture (80/20, v/v) at 0.5, 6 and 24 h after treatment by different regimens. Tissues (heart, liver, kidney and tumor) were collected at 24 h. About 100 mg of tissues were removed, and the wet weight was recorded. The tissues were homogenized in 1 mL of methanol/water mixture (80/20, v/v). The plasma and tissue mixture were centrifuged and the supernatant was collected respectively, dried by a SpeedVac, then dissolved in methanol and measured by HPLC.

Turning to `Cc1[nH]nc(C(F)(F)F)c1Cc1sc2c(c1C(=O)N1C[C@](C)(O)CO1)c(=O)n(C)c(=O)n2C(C)C` [AZD3965], in data set [1] (setting [2]), the “level of alanine aminotransferase (ALT)” value was “significantly increased”, the “level of aspartate aminotransferase (AST)” value is listed as “significantly increased” and the “level of cardiac troponin-I (cTnI)” value is reported as “significantly increased”. The body weight entry in data set [1] (oral administration, two weeks of treatment) was “did not cause weight loss”. Besides, the clearance from plasma result in “in vivo” (intravenous injection 2 mg/kg) is “rapid clearance of the drug”. In addition, in the data set “in vivo” (mouse, intravenous 2 mg/kg AZD3965, plasma, read-out: area under the concentration-time (AUC) value), the AUC was found to be 5400 ± 2500 ng·h/mL. Moreover, in “in vivo” (mouse, intravenous 2 mg/kg), the concentration at 24 h was found to be 290 ± 120 ng/g. In addition, the concentration at 24 h in the data set “in vivo” (mouse, oral administration 100 mg/kg (50-fold higher dose)) worked out at 4000 ± 3500 ng/g. In “in vivo” (oral administration 100 mg/kg, at 30 min, TC-1 tumor-bearing mice), the “peak drug plasma concentration” value is 47 ± 27 µg/mL. In addition, in the data set with TC-1 tumor (oral 50 mg/kg twice daily for 7 days, p=0.09 vs untreated), the tumor volume is recorded as 9.2±4.1×10^2 mm^3. For the same compound, the tumor volume in the data set with TC-1 tumor (oral AZD3965 in combination with anti-PD1) is reported as 8.0±3.1×10^2 mm^3. Moreover, in the data set on TC-1 cells, the “lactate secretion into culture medium” value was “significantly decreased the secretion of lactate” and the “pH change of culture medium” value is reported as “inhibited the lowering of pH in the medium”.
